# Assay results as given in ChEMBL document CHEMBL1201862, “PubChem BioAssay data set” (2004).
# Activity calls are given as the source filed them.
# Legend:
# CHO-K1 = experiment: (§1) Counterscreen for antagonists of the orexin 1 receptor (OX1R; HCRTR1): Homogeneous time resolved fluorescence (HTRF)-based cell-based dose response assay to identify antagonists of the parental CHO-K1 cell line. [Related pubchem assays (depositor defined):AID434989, AID435008, AID463079, AID485270, AID492963, AID492964, AID492965, AID493232, AID504699, AID504701]; format: functional; details: Cricetulus griseus
# [1] = as §1, with “Fluorescence-based” for “Homogeneous time resolved fluorescence (HTRF)-based”, “cell-based high throughput” for “cell-based”, “CHO” for “CHO-K1”; format: functional
# [2] = biological target: T1, Orexin/Hypocretin receptor type 1 (Homo sapiens, UniProt O43613); experiment: Homogeneous Time Resolved Fluorescence (HTRF)-based cell-based high throughput dose response assay for antagonists of the orexin 1 receptor (OX1R; HCRTR1). [Related pubchem assays (depositor defined):AID434989, AID435008, AID463079, AID485270, AID492963, AID492964, AID492965, AID493232, AID504717, AID504718]; format: functional
# T1 sequence (O43613 whole entry): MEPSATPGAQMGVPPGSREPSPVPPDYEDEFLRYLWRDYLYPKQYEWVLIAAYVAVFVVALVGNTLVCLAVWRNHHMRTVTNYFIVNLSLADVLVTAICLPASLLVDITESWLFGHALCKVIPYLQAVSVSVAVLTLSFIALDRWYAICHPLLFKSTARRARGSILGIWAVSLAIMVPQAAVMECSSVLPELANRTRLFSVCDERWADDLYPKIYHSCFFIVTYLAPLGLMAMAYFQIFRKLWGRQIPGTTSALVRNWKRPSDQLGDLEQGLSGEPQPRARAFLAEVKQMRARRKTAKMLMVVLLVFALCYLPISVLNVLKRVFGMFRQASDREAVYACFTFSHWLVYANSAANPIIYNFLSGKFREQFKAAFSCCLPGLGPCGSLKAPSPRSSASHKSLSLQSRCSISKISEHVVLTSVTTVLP
# [3] = biological target: T1, Orexin/Hypocretin receptor type 1; experiment: Fluorescence-based cell-based high throughput dose response assay for antagonists of the orexin 1 receptor (OX1R; HCRTR1). [Related pubchem assays (depositor defined):AID434989, AID435008, AID463079, AID485270, AID492963, AID492964, AID492965, AID493232, AID504717, AID504718]; format: functional
# Orexin receptor type 2 [4] = biological target: T2, Orexin receptor type 2 (Homo sapiens, UniProt O43614); experiment: Counterscreen assay for antagonists of the orexin 1 receptor (OX1R; HCRTR1): Fluorescence-based cell-based dose response assay for antagonists of the orexin 2 receptor (OX2R; HCRTR2), run by assay provider.; format: functional
# T2 sequence (O43614 whole entry): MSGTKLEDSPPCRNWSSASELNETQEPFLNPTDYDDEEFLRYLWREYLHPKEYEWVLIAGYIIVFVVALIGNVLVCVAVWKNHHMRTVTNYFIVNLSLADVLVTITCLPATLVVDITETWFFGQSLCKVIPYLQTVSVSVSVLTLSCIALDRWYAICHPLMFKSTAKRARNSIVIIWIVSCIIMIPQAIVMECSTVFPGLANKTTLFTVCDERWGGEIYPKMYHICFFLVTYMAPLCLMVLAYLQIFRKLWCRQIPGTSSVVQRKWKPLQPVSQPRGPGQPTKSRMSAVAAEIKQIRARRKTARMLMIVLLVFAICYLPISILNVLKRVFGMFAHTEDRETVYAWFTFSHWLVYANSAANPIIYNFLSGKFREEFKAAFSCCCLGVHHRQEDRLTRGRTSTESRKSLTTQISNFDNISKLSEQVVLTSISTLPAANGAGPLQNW
# Orexin receptor type 2 [5] = biological target: T2, Orexin receptor type 2; experiment: Counterscreen assay for antagonists of the orexin 1 receptor (OX1R; HCRTR1): Homogeneous Time Resolved Fluorescence (HTRF)-based cell-based dose response assay for antagonists of the orexin 2 receptor (OX2R; HCRTR2), run by assay provider.; format: functional
# [6] = suppression of NO production in INS-1E cells – cell-based, Griess absorbance, dry powder, set 3, dose response (AID 488870); format: functional; details: Rattus norvegicus
# INS1 [7] = experiment: suppression of NO production in INS-1E cells – cell-based, Griess absorbance, dry powder, set 2, dose response (AID 488868); format: functional; details: Rattus norvegicus
# INS1 [8] = experiment: cellular ATP toxicity in rat beta cells – cell-based, CellTiter-Glo luminescence, INS-1E, dry powder, cytotoxicity control for beta-cell cytokine protection project, dose response (AID 488864); format: functional
# [9] = A549 cell cytotoxicity, dose response, cytotoxicity control, plate reader, cherry-pick, antagonist series (AID 743412); format: functional, cell-based
# [10] = toxicity toward HepG2 liver cells – cell-based, plate reader, cherry-pick, antagonist series, cytotoxicity control, dose response (AID 743416); format: functional
# [11] = blockers of bursicon-stimulated LGR2 cAMP reporter – cell-based, HEK293, CRE-luciferase reporter, cherry pick, set 2, dose response (AID 743343); format: functional;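 note: transfected cells were stimulated with diluted bursicon conditioned medium after compound addition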
# [12] = blockade of melanocortin 4 receptor signaling – cell-based, plate reader, cherry pick, counter-screen for LGR2 antagonist project, dose response (AID 743444); format: functional;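 note: transfected HEK 293 cells stimulated with alpha-MSH peptide; potency of inhibitors of the alpha-MSH evoked signal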
# [13] = viability loss in HEK293 cells – cell-based, plate reader, cherry-picked samples, cytotoxicity control, dose response (AID 743446); format: functional
# [14] = biological target: Protein disulfide-isomerase (Homo sapiens, UniProt P07237); experiment: inhibition of PDI-driven insulin aggregation – biochemical, turbidity, absorbance, cherry-picked samples, dose response (AID 602350); format: functional
# Protein disulfide-isomerase, sequence (P07237 whole entry, the tested form may be a part): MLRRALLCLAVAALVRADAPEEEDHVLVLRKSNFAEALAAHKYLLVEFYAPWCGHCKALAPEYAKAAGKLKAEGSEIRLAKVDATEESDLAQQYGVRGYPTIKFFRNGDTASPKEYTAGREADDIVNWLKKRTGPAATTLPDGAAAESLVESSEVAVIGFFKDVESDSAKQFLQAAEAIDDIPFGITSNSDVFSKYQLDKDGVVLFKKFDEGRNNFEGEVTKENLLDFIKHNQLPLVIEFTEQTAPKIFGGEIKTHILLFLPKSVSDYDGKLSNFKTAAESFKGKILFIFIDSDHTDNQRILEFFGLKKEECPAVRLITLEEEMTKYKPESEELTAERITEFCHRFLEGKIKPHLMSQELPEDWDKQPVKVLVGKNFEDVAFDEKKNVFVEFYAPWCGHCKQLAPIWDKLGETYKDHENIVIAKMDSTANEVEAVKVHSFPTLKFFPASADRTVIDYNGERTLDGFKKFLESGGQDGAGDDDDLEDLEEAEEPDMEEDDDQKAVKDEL
# CHO = CHO cell viability loss, potency – luminescence, cytotoxicity control for TLR9-MyD88 binding inhibitor project, dose response (AID 588339); format: functional, cell-based, hamster; details: Cricetulus griseus;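 note: CHO cells stably coexpressing TLR9 and MyD88 fusions from primary screen; compound exposure lasted 48 hours before viability readout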
# Beta Lactamase = Beta Lactamase (Pseudomonas aeruginosa, UniProt Q932Y6); experiment: BLA reporter interference, concentration series – BLA reporter cells, FRET fluorescence, artefact control for TLR9-MyD88 binding inhibitor project, dose response (AID 588341); format: cell-based;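 note: cell based assay in CHO-K1 cells stably expressing beta-lactamase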
# Beta Lactamase, sequence (Q932Y6 whole entry): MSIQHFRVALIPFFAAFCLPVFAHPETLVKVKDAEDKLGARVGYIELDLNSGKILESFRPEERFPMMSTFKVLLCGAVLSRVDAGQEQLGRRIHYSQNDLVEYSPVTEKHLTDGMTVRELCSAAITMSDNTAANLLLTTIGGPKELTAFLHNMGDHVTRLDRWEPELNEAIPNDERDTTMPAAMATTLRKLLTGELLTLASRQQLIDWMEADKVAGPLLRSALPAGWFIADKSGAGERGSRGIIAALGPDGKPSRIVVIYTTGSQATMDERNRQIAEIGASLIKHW
# [15] = reduction of Shn3 3'UTR-driven luciferase in osteoblasts – cell-based, Clone20 osteoblasts, firefly luciferase, cherry-picked, dose response (AID 624132); format: functional;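 note: firefly luciferase luminescence from reporter carrying the Shn3 3'UTR in osteoblasts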
# [16] = loss of viability in HepG2 cells – cell-based, CellTiter-Glo, cherry-picked, cytotoxicity control for Shn3 inhibitor project, dose response (AID 624134); format: functional
# [17] = non-specific 3'UTR reporter inhibition in Clone20-Shn3RL – cell-based, Renilla luciferase, cherry-picked, counter-screen for Shn3 inhibitor project, dose response (AID 624133); format: functional
smiles,measurement,setting,value
O=C(O)CCn1c(SCCOc2ccccc2)nc2ccccc21,IC50,CHO-K1,> 66.2 µM (inactive)
same,IC50,[1],> 49.7 µM (inactive)
same,IC50,[2],0.687 µM (active)
same,IC50,[3],23 µM (inactive)
same,IC50,Orexin receptor type 2 [4],> 88.8 µM (inactive)
same,IC50,Orexin receptor type 2 [5],> 50 µM (inactive)
COc1ccc(S(=O)(=O)N(C)C[C@@H]2Oc3c(NC(=O)c4nc5ccccc5s4)cccc3C(=O)N([C@@H](C)CO)C[C@H]2C)cc1,AC50,[6],38.6 µM (active)
same,AC50,INS1 [7],30.7 µM (active)
same,AC50,INS1 [8],32.7 µM (active)
same,AC50,[9],15 µM (active)
same,AC50,[10],23.7 µM (active)
same,AC50,[11],9.82 µM (active)
same,AC50,[12],28.8 µM (active)
same,AC50,[13],> 52 µM (inactive)
O=C1NC[C@H](Cc2ccccc2)N(C[C@H]2CCCN2C[C@H](Cc2ccccc2)N2C[C@H](Cc3ccc(O)cc3)N(CCc3ccccc3)C(=O)C2=O)C1=O,AC50,[14],6.5 µM (active)
C=C1C(=O)c2sccc2C(c2ccc(OC)c(OC)c2)C1COC(C)=O (stereo not given),IC50,CHO,1.69 µM (active)
same,IC50,Beta Lactamase,21.4 µM (inactive)
same,AC50,[15],0.662 µM (active)
same,AC50,[16],6.99 µM (active)
same,AC50,[17],3.62 µM (active)
